The values that follow come from ChEMBL document CHEMBL1201862, “PubChem BioAssay data set” (2004).

Some test systems named below: PC-3; SW-620; COLO 205; Hs-578T; HT-29; A549; UACC-257; RXF 393; IGROV-1; SK-OV-3; DU-145; UO-31; SF-295; A498; SNB-19; NCI-H460; HL-60; MCF7; OVCAR-4; OVCAR-3.
Common to all, as to test: DTP human tumour cell line panel, 48 h

SMILES strings stand for the structures.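 Five concentrations, 48 hours, 96-well plates. GI50 is the concentration that inhibits growth by half.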 Activity calls are given as the source filed them. Rule as the data show it: active = GI50 up to about 1.1 µM and inactive = higher. Bounds are passed on as bounds.

By GI50 is commonly meant the concentration that inhibits growth by half. For the molecule `N#C/C(=C\c1ccc([N+](=O)[O-])o1)c1n[nH]c(Cc2ccccc2)n1`, the GI50 was 2.45 µM (inactive) in the experiment with PC-3; 0.277 µM (active) in the experiment with SW-620; 1.23 µM (inactive) with COLO 205; 3.98 µM (inactive) in the experiment with Hs-578T; 1.05 µM (active) with HT-29; 2.56 µM (inactive) in the experiment with A549. For the same molecule, the GI50 in the experiment with UACC-257 was 1.91 µM (inactive); in the experiment with RXF 393, 0.423 µM (active); with IGROV-1 it was 1.4 µM (inactive); in the experiment on SK-OV-3, 4.52 µM (inactive); in the experiment with DU-145, 1.57 µM (inactive); in the experiment with UO-31 it was 2.66 µM (inactive). The GI50 in the experiment on SF-295 is 7.26 µM (inactive); in the experiment with A498, 6.32 µM (inactive); with SNB-19, 4.93 µM (inactive); in the experiment on NCI-H460, 3.3 µM (inactive); in the experiment on HL-60 it was 3.06 µM (inactive); with MCF7, 2.28 µM (inactive). The GI50 with OVCAR-4 is 1.82 µM (inactive); in the experiment with OVCAR-3, 1.64 µM (inactive).
With `COC(=O)C1C(=O)N(C)C(=O)N2CCCC12` (stereo not given), the GI50 in the experiment on PC-3, in the experiment on SW-620, with COLO 205, in the experiment with Hs-578T, in the experiment with HT-29 and with A549 was > 100 µM (inactive) in each case. Besides, the GI50 with UACC-257 is > 100 µM (inactive); in the experiment on RXF 393, 71.8 µM (inactive); in the experiment with IGROV-1, > 100 µM (inactive); with SK-OV-3, > 100 µM (inactive); with DU-145, > 100 µM (inactive); in the experiment with UO-31, > 100 µM (inactive). For the same molecule, the GI50 in the experiment with SF-295, in the experiment with A498, with SNB-19, in the experiment with NCI-H460, in the experiment with HL-60 and in the experiment on MCF7 was > 100 µM (inactive) throughout. Moreover, the GI50 in the experiment on OVCAR-4 and with OVCAR-3 was > 100 µM (inactive) throughout.
Regarding `COC(=O)c1nc2c3c(cccc3c1C(=O)OC)Nc1ccccc1-2`, the GI50 was 15.5 µM (inactive) in the experiment with PC-3; 40.7 µM (inactive) in the experiment with SW-620; 28.1 µM (inactive) in the experiment with COLO 205; 26.7 µM (inactive) in the experiment with Hs-578T; 34.8 µM (inactive) in the experiment with HT-29; 35.6 µM (inactive) in the experiment on A549. Also, the GI50 with UACC-257 was 61.4 µM (inactive); in the experiment on RXF 393, 35.7 µM (inactive); in the experiment with IGROV-1 it was 32 µM (inactive); in the experiment on SK-OV-3, 24 µM (inactive); in the experiment with DU-145 it was 41.6 µM (inactive); with UO-31, 18.8 µM (inactive). In addition, the GI50 in the experiment on SF-295 was 21.1 µM (inactive); in the experiment on A498, 36.6 µM (inactive); in the experiment on SNB-19 it was 51.3 µM (inactive); in the experiment with NCI-H460, 25.7 µM (inactive); in the experiment with HL-60, 53 µM (inactive); in the experiment on MCF7, 60.4 µM (inactive). For the same molecule, the GI50 with OVCAR-4 was 35.9 µM (inactive); with OVCAR-3, 36.6 µM (inactive).
As for `OC1(c2ccccc2)CSC2=Nc3ccccc3C3CCN1N23` (stereo not given), the GI50 was 15.3 µM (inactive) with PC-3; 21.4 µM (inactive) in the experiment on SW-620; 17.7 µM (inactive) with COLO 205; 24.2 µM (inactive) with Hs-578T; 18.1 µM (inactive) with HT-29; 26.8 µM (inactive) in the experiment with A549. Moreover, the GI50 with UACC-257 was 23.4 µM (inactive); in the experiment on RXF 393, 20.9 µM (inactive); in the experiment on IGROV-1 it was 13.3 µM (inactive); in the experiment with SK-OV-3, 32.7 µM (inactive); with DU-145 it was 15.6 µM (inactive); in the experiment on UO-31, 15.4 µM (inactive). In addition, the GI50 is 6.47 µM (inactive) with SF-295; 14.6 µM (inactive) with A498; 15.5 µM (inactive) with SNB-19; 13.4 µM (inactive) with NCI-H460; 30.1 µM (inactive) with HL-60; 15.6 µM (inactive) with MCF7. Further, the results for the GI50 in the experiment with OVCAR-4 and with OVCAR-3 were 23.1 µM (inactive) and 26.7 µM (inactive), respectively.
`C[C@H]1[C@H](C)CC[C@]2(C(=O)OC3OC(CO)C(O)C(O)C3O)CC[C@]3(C)C(=CC[C@@H]4[C@@]5(C)C[C@@H](O)[C@@H]6OC(=O)c7cc(O)c(O)c(O)c7-c7c(cc(O)c(O)c7O)C(=O)OC[C@]6(CO)[C@@H]5CC[C@]43C)[C@H]12` (stereo not given in full): the GI50 in the experiment with PC-3 is > 62.4 µM (inactive); in the experiment with SW-620, 27.4 µM (inactive); with COLO 205 it was 41.7 µM (inactive); in the experiment on Hs-578T it was > 100 µM (inactive); with HT-29, 19.1 µM (inactive); with A549, 78 µM (inactive). The GI50 with UACC-257 is > 78.3 µM (inactive); in the experiment on RXF 393, > 91.4 µM (inactive); with IGROV-1, > 86.3 µM (inactive); in the experiment with SK-OV-3, 31.7 µM (inactive); in the experiment on DU-145, > 100 µM (inactive); with UO-31, 56.9 µM (inactive). Besides, the GI50 in the experiment on SF-295 is 29.2 µM (inactive); in the experiment on A498, > 100 µM (inactive); in the experiment on SNB-19, 26.5 µM (inactive); in the experiment with NCI-H460, 23.7 µM (inactive); with HL-60, 25.9 µM (inactive); with MCF7 it was 7.1 µM (inactive). Moreover, the GI50 in the experiment with OVCAR-4 was 14.7 µM (inactive); in the experiment on OVCAR-3, 35.2 µM (inactive).
`CN(C)CC1CCCCCC(Br)C1=O` (stereo not given): the GI50 is 21.3 µM (inactive) in the experiment on PC-3; 3.71 µM (inactive) in the experiment with SW-620; 11.5 µM (inactive) in the experiment with COLO 205; 17.1 µM (inactive) with Hs-578T; 7.76 µM (inactive) in the experiment on HT-29; > 70.8 µM (inactive) with A549. Also, the GI50 in the experiment with UACC-257 was 9.93 µM (inactive); in the experiment with RXF 393, 15.4 µM (inactive); in the experiment with IGROV-1, 28.2 µM (inactive); with SK-OV-3, > 100 µM (inactive); in the experiment with DU-145, 12.1 µM (inactive); in the experiment with UO-31, 13.6 µM (inactive). The GI50 with SF-295 is > 64.6 µM (inactive); in the experiment with A498, 54.8 µM (inactive); in the experiment with SNB-19, > 83.2 µM (inactive); in the experiment on NCI-H460, 17.7 µM (inactive); in the experiment on HL-60, 6.12 µM (inactive); with MCF7, 2.71 µM (inactive). For the same molecule, the GI50 in the experiment on OVCAR-4 is 15 µM (inactive); with OVCAR-3, 7.38 µM (inactive).
Consider `CCOC(=O)C1=CN(C(=O)c2ccccc2)CCC1Cc1ccccc1` (stereo not given), for which the GI50 was 17.7 µM (inactive) in the experiment with PC-3; 26 µM (inactive) in the experiment with SW-620; 18.9 µM (inactive) with COLO 205; 20.5 µM (inactive) in the experiment with Hs-578T; 17 µM (inactive) in the experiment on HT-29; 29.2 µM (inactive) in the experiment on A549. In addition, the GI50 was 15.8 µM (inactive) with UACC-257; 18.1 µM (inactive) in the experiment with RXF 393; 27.3 µM (inactive) with IGROV-1; 31 µM (inactive) in the experiment with SK-OV-3; 40.9 µM (inactive) in the experiment with DU-145; 33 µM (inactive) in the experiment on UO-31. Also, the GI50 in the experiment with SF-295 is 29.1 µM (inactive); in the experiment with A498, 7.87 µM (inactive); in the experiment with SNB-19, 34.4 µM (inactive); in the experiment on NCI-H460, 17.5 µM (inactive); with HL-60, 9.04 µM (inactive); in the experiment on MCF7, 23.1 µM (inactive). For the same molecule, the GI50 is 24.5 µM (inactive) in the experiment with OVCAR-4 and 25.9 µM (inactive) in the experiment with OVCAR-3.
